25 compounds from patent US9539260B2, “Dihydro-benzo-oxazine and dihydro-pyrido-oxazine derivatives” (Novartis AG, priority 2012, dated 2017) can be followed below.

Assay [1] has as its target PI3K delta (Homo sapiens (Human), UniProt O00329). Briefly: Enzymatic PI3K delta isoform inhibition (lipid kinase activity, Kinase-Glo luminescence). It counts as biochemical. To be noted: Enzymatic assay. In outline: (§1)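 IC50s derive from 4-parameter logistic fits of % inhibition across 8 concentrations (usually 10 to 0.003 μM). Lipid kinase reaction: PI3K (10 nM) plus phosphatidylinositol (5 μg/mL) started with 2 μM ATP, stopped near 50% ATP depletion; leftover ATP quantified by Kinase-Glo luminescence.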

Assay [2] concerns the target PI3K alpha (Homo sapiens (Human), UniProt P42336). The assay is described as follows: Enzymatic PI3K alpha isoform inhibition (lipid kinase activity, Kinase-Glo luminescence). It counts as biochemical. To be noted: Enzymatic assay. The procedure, abridged: as §1

PI3K alpha, sequence (P42336 other isoform, or with tags, fused parts or gaps): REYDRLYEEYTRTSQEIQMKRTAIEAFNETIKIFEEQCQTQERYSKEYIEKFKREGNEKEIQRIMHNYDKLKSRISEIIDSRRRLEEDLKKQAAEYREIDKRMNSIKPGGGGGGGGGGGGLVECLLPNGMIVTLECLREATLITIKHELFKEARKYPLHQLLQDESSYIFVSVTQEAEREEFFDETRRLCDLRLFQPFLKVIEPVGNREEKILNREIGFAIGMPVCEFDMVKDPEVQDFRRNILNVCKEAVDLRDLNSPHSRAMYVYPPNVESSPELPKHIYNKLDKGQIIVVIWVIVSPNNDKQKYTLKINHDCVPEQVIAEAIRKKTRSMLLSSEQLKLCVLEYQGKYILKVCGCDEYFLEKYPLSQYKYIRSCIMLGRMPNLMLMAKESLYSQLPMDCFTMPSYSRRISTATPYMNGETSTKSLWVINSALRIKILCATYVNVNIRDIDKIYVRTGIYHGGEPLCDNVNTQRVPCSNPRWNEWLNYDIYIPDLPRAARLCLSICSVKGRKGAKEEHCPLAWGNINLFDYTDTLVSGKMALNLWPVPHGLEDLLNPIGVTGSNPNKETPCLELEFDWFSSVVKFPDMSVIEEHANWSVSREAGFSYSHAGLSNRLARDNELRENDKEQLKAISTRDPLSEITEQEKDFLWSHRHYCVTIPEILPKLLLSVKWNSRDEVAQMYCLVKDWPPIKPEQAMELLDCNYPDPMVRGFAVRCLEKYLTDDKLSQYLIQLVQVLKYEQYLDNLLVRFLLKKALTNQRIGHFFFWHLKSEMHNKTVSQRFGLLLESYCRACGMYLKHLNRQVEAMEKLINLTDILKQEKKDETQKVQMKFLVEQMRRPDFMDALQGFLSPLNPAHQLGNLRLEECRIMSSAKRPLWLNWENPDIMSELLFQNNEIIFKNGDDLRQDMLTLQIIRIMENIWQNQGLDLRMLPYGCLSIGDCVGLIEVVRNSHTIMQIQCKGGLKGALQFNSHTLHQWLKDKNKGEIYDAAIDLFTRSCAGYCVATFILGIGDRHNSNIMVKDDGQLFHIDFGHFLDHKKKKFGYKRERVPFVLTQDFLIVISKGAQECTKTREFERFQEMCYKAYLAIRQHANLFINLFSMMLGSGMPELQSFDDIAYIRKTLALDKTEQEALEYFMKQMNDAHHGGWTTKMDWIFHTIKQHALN
PI3K delta, sequence (O00329 other isoform, or with tags, fused parts or gaps linker GGGGGG): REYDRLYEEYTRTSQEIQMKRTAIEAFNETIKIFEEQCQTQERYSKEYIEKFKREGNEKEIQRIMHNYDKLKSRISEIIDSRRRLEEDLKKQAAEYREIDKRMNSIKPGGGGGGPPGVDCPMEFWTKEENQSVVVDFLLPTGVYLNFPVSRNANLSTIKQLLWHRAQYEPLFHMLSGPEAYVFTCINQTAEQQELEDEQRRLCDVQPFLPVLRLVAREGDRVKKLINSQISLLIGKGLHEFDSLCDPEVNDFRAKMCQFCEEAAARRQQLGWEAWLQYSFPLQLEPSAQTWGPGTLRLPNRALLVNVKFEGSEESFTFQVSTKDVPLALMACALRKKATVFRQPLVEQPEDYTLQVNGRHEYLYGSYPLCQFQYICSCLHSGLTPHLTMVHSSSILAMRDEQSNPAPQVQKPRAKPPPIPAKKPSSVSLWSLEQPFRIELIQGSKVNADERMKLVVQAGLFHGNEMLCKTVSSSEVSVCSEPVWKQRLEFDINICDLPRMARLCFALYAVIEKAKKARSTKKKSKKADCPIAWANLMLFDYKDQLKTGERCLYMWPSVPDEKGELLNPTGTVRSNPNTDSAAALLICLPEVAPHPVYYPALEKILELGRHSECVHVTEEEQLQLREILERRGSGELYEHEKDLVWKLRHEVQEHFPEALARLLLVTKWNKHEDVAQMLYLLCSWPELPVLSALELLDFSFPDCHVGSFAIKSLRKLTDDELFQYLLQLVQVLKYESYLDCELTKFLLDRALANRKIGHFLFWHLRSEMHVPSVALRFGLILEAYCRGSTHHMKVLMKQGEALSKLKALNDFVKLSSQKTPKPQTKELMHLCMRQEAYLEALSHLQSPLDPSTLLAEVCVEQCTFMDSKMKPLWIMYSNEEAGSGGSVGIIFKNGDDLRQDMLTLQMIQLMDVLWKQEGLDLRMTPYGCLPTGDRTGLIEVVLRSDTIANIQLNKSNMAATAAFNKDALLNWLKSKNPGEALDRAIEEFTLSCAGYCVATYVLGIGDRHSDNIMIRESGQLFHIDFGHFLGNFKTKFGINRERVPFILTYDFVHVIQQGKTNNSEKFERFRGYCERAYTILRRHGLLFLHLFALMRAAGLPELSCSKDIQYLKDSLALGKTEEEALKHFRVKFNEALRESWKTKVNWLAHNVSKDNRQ

Consider `CCC(=O)N1CC[C@H](Oc2ccc3c(c2)N(c2cnc(Cl)c(OC)c2)CCO3)C1` [Example B55, 1-{(S)-3-[4-(6-Chloro-5-methoxy-pyridin-3-yl)-3,4-dihydro-2H-benzo[1,4]oxazin-6-yloxy]-pyrrolidin-1-yl}-propan-1-one], for which the IC50 was 65 nM in assay [1] and 3850 nM in assay [2].
Taken in the same sequence, the figures for `COc1cc(N2CCOc3ccc(O[C@H]4CCN(C(=O)C5CCS(=O)(=O)CC5)C4)cc32)cnc1Cl` [Example B56, {(S)-3-[4-(6-Chloro-5-methoxy-pyridin-3-yl)-3,4-dihydro-2H-benzo[1,4]oxazin-6-yloxy]-pyrrolidin-1-yl}-(1,1-dioxo-hexahydro-1lambda*6*-thiopyran-4-yl)-methanone] were 23 nM and 1420 nM.
Regarding `COc1cc(N2CCOc3ccc(O[C@H]4CCN(C(=O)CCO)C4)cc32)cnc1Cl` [Example B57, 1-{(S)-3-[4-(6-Chloro-5-methoxy-pyridin-3-yl)-3,4-dihydro-2H-benzo[1,4]oxazin-6-yloxy]-pyrrolidin-1-yl}-3-hydroxy-propan-1-one], the IC50 is 95 nM in assay [1] and 2270 nM in assay [2].
Regarding `Cc1cc(N2CCOc3ccc(O[C@H]4CCN(C(=O)C5CCOCC5)C4)cc32)cnc1Cl` [Example B58, {(S)-3-[4-(6-Chloro-5-methyl-pyridin-3-yl)-3,4-dihydro-2H-benzo[1,4]oxazin-6-yloxy]-pyrrolidin-1-yl}-(tetrahydro-pyran-4-yl)-methanone], the IC50 was found to be 4 nM in assay [1] and 366 nM in assay [2].
Taken in the same sequence, the figures for `CCC(=O)N1CC[C@H](Oc2ccc3c(c2)N(c2cnc(Cl)c(C)c2)CCO3)C1` [Example B59, 1-{(S)-3-[4-(6-Chloro-5-methyl-pyridin-3-yl)-3,4-dihydro-2H-benzo[1,4]oxazin-6-yloxy]-pyrrolidin-1-yl}-propan-1-one] were 17 nM and 461 nM.
On to `Cc1cc(N2CCOc3ccc(O[C@H]4CCN(C(=O)C5CCS(=O)(=O)CC5)C4)cc32)cnc1Cl` [Example B60, {(S)-3-[4-(6-Chloro-5-methyl-pyridin-3-yl)-3,4-dihydro-2H-benzo[1,4]oxazin-6-yloxy]-pyrrolidin-1-yl}-(1,1-dioxo-hexahydro-1lambda*6*-thiopyran-4-yl)-methanone], for which the IC50 came out at 11 nM in assay [1] and 463 nM in assay [2].
As for `Cc1cc(N2CCOc3ccc(O[C@H]4CCN(C(=O)CCO)C4)cc32)cnc1Cl` [Example B61, 1-{(S)-3-[4-(6-Chloro-5-methyl-pyridin-3-yl)-3,4-dihydro-2H-benzo[1,4]oxazin-6-yloxy]-pyrrolidin-1-yl}-3-hydroxy-propan-1-one], the IC50 stood at 37 nM in assay [1] and 732 nM in assay [2].
Taken in the same sequence, the figures for `COc1cc(N2CCOc3ccc(O[C@H]4CCN(C(=O)c5ccc(=O)[nH]c5)C4)cc32)cnc1Cl` [Example B63, 5-{(S)-3-[4-(6-Chloro-5-methoxy-pyridin-3-yl)-3,4-dihydro-2H-benzo[1,4]oxazin-6-yloxy]-pyrrolidine-1-carbonyl}-1H-pyridin-2-one] were 68 nM and 1520 nM.
The corresponding values for `COc1cc(N2CCOc3ccc(O[C@H]4CCN(C(=O)[C@H]5CC[C@H](O)CC5)C4)cc32)cnc1OC` [Example B66, {(S)-3-[4-(5,6-Dimethoxy-pyridin-3-yl)-3,4-dihydro-2H-benzo[1,4]oxazin-6-yloxy]-pyrrolidin-1-yl}-(4-hydroxy-cyclohexyl)-methanone] are 11 nM and 446 nM.
The corresponding values for `Cc1cnccc1C(=O)N1CC[C@H](Oc2ccc3c(c2)N(c2cnc(S(C)(=O)=O)c(C)c2)CCO3)C1` [Example B67, {(S)-3-[4-(6-Methanesulfonyl-5-methyl-pyridin-3-yl)-3,4-dihydro-2H-benzo[1,4]oxazin-6-yloxy]-pyrrolidin-1-yl}-(3-methyl-pyridin-4-yl)-methanone] are 25 nM and 804 nM.
`Cc1cc(N2CCOc3ccc(O[C@H]4CCN(C(=O)Cc5ccncc5)C4)cc32)cnc1S(C)(=O)=O` [Example B68, 1-{(S)-3-[4-(6-Methanesulfonyl-5-methyl-pyridin-3-yl)-3,4-dihydro-2H-benzo[1,4]oxazin-6-yloxy]-pyrrolidin-1-yl}-2-pyridin-4-yl-ethanone]: the half-inhibitory concentration (IC50) in assay [1] is 39 nM; in assay [2] it was 840 nM.
Turning to `CS(=O)(=O)c1ncc(N2CCOc3ccc(O[C@H]4CCN(C(=O)C5CCOCC5)C4)cc32)cc1C(F)(F)F` [Example B69, {(S)-3-[4-(6-Methanesulfonyl-5-trifluoromethyl-pyridin-3-yl)-3,4-dihydro-2H-benzo[1,4]oxazin-6-yloxy]-pyrrolidin-1-yl}-(tetrahydro-pyran-4-yl)-methanone], the 50% inhibitory concentration (IC50) in assay [1] amounted to 5 nM; in assay [2], 189 nM.
The corresponding values for `CS(=O)(=O)c1ncc(N2CCOc3ccc(O[C@H]4CCN(C(=O)C5CCOCC5)C4)cc32)cc1C(F)F` [Example B70, {(S)-3-[4-(5-Difluoromethyl-6-methanesulfonyl-pyridin-3-yl)-3,4-dihydro-2H-benzo[1,4]oxazin-6-yloxy]-pyrrolidin-1-yl}-(tetrahydro-pyran-4-yl)-methanone] are 3 nM and 134 nM.
As to `CS(=O)(=O)c1ncc(N2CCOc3ccc(O[C@H]4CCN(C(=O)C5CCOCC5)C4)cc32)cc1CF` [Example B71, {(S)-3-[4-(5-Fluoromethyl-6-methanesulfonyl-pyridin-3-yl)-3,4-dihydro-2H-benzo[1,4]oxazin-6-yloxy]-pyrrolidin-1-yl}-(tetrahydro-pyran-4-yl)-methanone], the IC50 in assay [1] is 5.5 nM; in assay [2], 360 nM.
The corresponding values for `Cc1cc(N2CCOc3ccc(O[C@H]4CCN(C(=O)C5CCOCC5)C4)cc32)cnc1OC(F)F` [Example B72, {(S)-3-[4-(6-Difluoromethoxy-5-methyl-pyridin-3-yl)-3,4-dihydro-2H-benzo[1,4]oxazin-6-yloxy]-pyrrolidin-1-yl}-(tetrahydro-pyran-4-yl)-methanone] are 32 nM and 2060 nM.
The corresponding values for `Cc1cc(N2CCOc3ccc(O[C@H]4CCN(C(=O)C5CCS(=O)(=O)CC5)C4)cc32)cnc1OC(F)F` [Example B73, {(S)-3-[4-(6-Difluoromethoxy-5-methyl-pyridin-3-yl)-3,4-dihydro-2H-benzo[1,4]oxazin-6-yloxy]-pyrrolidin-1-yl}-(1,1-dioxo-hexahydro-6-thiopyran-4-yl)-methanone] are 30 nM and 1770 nM.
Taken in the same sequence, the figures for `Cn1cnc(C(=O)N2CC[C@H](Oc3ccc4c(c3)N(c3cnc(S(C)(=O)=O)c(C(F)F)c3)CCO4)C2)c1` [Example B74] were 9 nM and 54 nM.
For the compound `CS(=O)(=O)c1ncc(N2CCOc3ccc(O[C@H]4CCN(C(=O)[C@@H]5CCOC5)C4)cc32)cc1C(F)F` [Example B75, {(S)-3-[4-(5-Difluoromethyl-6-methanesulfonyl-pyridin-3-yl)-3,4-dihydro-2H-benzo[1,4]oxazin-6-yloxy]-pyrrolidin-1-yl}-(R)-tetrahydro-furan-3-yl-methanone], the values for the 50% inhibitory concentration (IC50) in assay [1] and in assay [2] were 11 nM and 211 nM, respectively.
Taken in the same sequence, the figures for `CS(=O)(=O)c1ncc(N2CCOc3ccc(O[C@H]4CCN(C(=O)[C@H]5CCOC5)C4)cc32)cc1C(F)F` [Example B76, {(S)-3-[4-(5-Difluoromethyl-6-methanesulfonyl-pyridin-3-yl)-3,4-dihydro-2H-benzo[1,4]oxazin-6-yloxy]-pyrrolidin-1-yl}-(S)-tetrahydro-furan-3-yl-methanone] were 61 nM and 399 nM.
Taken in the same sequence, the figures for `CNc1cc(N2CCOc3ccc(O[C@H]4CCN(C(=O)C5CCOCC5)C4)cc32)cnc1S(C)(=O)=O` [Example B77, {(S)-3-[4-(6-Methanesulfonyl-5-methylamino-pyridin-3-yl)-3,4-dihydro-2H-benzo[1,4]oxazin-6-yloxy]-pyrrolidin-1-yl}-(tetrahydro-pyran-4-yl)-methanone] were 32 nM and 897 nM.
The corresponding values for `CS(=O)(=O)c1ncc(N2CCOc3ccc(O[C@H]4CCN(C(=O)C5CCOCC5)C4)cc32)cc1Cl` [Example B79, {(S)-3-[4-(5-Chloro-6-methanesulfonyl-pyridin-3-yl)-3,4-dihydro-2H-benzo[1,4]oxazin-6-yloxy]-pyrrolidin-1-yl}-(tetrahydro-pyran-4-yl)-methanone] are 3 nM and 661 nM.
For the compound `Cc1cc(N2CCOc3ccc(O[C@H]4CCN(C(=O)C5CC5)C4)cc32)cnc1S(C)(=O)=O` [Example B80, Cyclopropyl-{(S)-3-[4-(6-methanesulfonyl-5-methyl-pyridin-3-yl)-3,4-dihydro-2H-benzo[1,4]oxazin-6-yloxy]-pyrrolidin-1-yl}-methanone], the 50% inhibitory concentration (IC50) in assay [1] was determined as 4 nM; in assay [2], 295 nM.
The corresponding values for `Cc1cc(N2CCOc3ccc(O[C@H]4CCN(S(=O)(=O)C5CCOCC5)C4)cc32)cnc1S(C)(=O)=O` [Example B81, 4-(6-Methanesulfonyl-5-methyl-pyridin-3-yl)-6-[(S)-1-(tetrahydro-pyran-4-sulfonyl)-pyrrolidin-3-yloxy]-3,4-dihydro-2H-benzo[1,4]oxazine] are 81 nM and 482 nM.
Taken in the same sequence, the figures for `Cc1cc(N2CCOc3ccc(O[C@H]4CCN(S(=O)(=O)C(C)C)C4)cc32)cnc1S(C)(=O)=O` [Example B82, 4-(6-Methanesulfonyl-5-methyl-pyridin-3-yl)-6-[(S)-1-(propane-2-sulfonyl)-pyrrolidin-3-yloxy]-3,4-dihydro-2H-benzo[1,4]oxazine] were 66 nM and 353 nM.
The corresponding values for `Cc1cc(N2CCOc3ccc(O[C@H]4CCN(S(=O)(=O)C5CC5)C4)cc32)cnc1S(C)(=O)=O` [Example B83, 6-((S)-1-Cyclopropanesulfonyl-pyrrolidin-3-yloxy)-4-(6-methanesulfonyl-5-methyl-pyridin-3-yl)-3,4-dihydro-2H-benzo[1,4]oxazine] are 29 nM and 214 nM.
